Key:
[1] = pH 7; relative to normal hydrogen electrode; cited from earlier work
[2] = Reaction of iron(III)-polymaltose complex with ascorbic acid in buffered solution, UV-VIS, exclusion of oxygen; assay type: physicochemical
Excerpt: The following measurements were obtained when iron(III)-polymaltose complex with ascorbic acid (ascorbic acid) was investigated at pH 3.0, 5.5 and 8.0:
The buffered solutions (buffers as described above, see Geisser, P., Arneim. -Forsch./Drug Res. 1990, 40 (II), 7, 754-760) were mixed in a molar ratio of Fe(III):ascorbic acid of 1:1, the concentration of Fe(III) and ascorbic acid in the mixture being 5×10^−5 mol/l in each case, and investigated using a conventional UV-VIS spectrophotometer. The operation was carried out with the strict exclusion of oxygen.

[3] = pH 3.0, reaction time 2 h, Fe(III):ascorbic acid 1:1, 5x10^-5 mol/l
[4] = pH 3.0, reaction time 4 h, Fe(III):ascorbic acid 1:1
[5] = pH 5.5, reaction time 2 h, Fe(III):ascorbic acid 1:1
[6] = pH 8.0, reaction time 2 h, Fe(III):ascorbic acid 1:1
[7] = pH 8.0, reaction time 4 h, Fe(III):ascorbic acid 1:1

Compound	redox potential [1] [mV]	reaction with ascorbic acid to give dehydroascorbic acid ([2]; pH 3, 5.5 and 8, buffered solution, exclusion of oxygen)	Formation of Fe2+ ions [2, 3] [%]	Formation of dehydroascorbic acid [2, 3] [%]	Formation of Fe2+ ions [2, 4] [%]	Formation of dehydroascorbic acid [2, 4] [%]	Formation of Fe2+ ions [2, 5] [%]	Formation of dehydroascorbic acid [2, 5] [%]	Formation of Fe2+ ions [2, 6] [%]	Formation of dehydroascorbic acid [2, 6] [%]	Formation of Fe2+ ions [2, 7] [%]	Formation of dehydroascorbic acid [2, 7] [%]	reaction with ascorbic acid to dehydroascorbic acid and Fe(II) ([2]; within a period of 4 hours, pH values of from 3 to 8)
O=C1O[C@H]([C@@H](O)CO)C(O)=C1O [ascorbic acid, reference compound]	−66	–	–	–	–	–	–	–	–	–	–	–	–
iron(III)-polymaltose complex	−332	does not react	2	2	7	7	0	0	5	9	5	13	reacts only slowly

— US20080269167A1, “Preparation Comprising Iron(III) Complex Compounds And Redox-Active Substance(s)” (VIFOR (INTERNATIONAL) AG, priority 2005, published 2008)
